Columns and labels:
[1] = tested on: human UGTs; assay: Glucuronidation activity across the tested human recombinant UGTs; conditions: 12 human recombinant UGTs; 750 μM substrate, UDP-GlcUA 4 mM, 90 min
[2] = biological target: T1, recombinant human UGT2B7 (Homo sapiens, UniProt P16662); assay: Glucuronidation by recombinant UGT2B7 (activity screen); conditions: 750 μM substrate, UDP-GlcUA 4 mM, 90 min
T1 sequence (P16662 24-529): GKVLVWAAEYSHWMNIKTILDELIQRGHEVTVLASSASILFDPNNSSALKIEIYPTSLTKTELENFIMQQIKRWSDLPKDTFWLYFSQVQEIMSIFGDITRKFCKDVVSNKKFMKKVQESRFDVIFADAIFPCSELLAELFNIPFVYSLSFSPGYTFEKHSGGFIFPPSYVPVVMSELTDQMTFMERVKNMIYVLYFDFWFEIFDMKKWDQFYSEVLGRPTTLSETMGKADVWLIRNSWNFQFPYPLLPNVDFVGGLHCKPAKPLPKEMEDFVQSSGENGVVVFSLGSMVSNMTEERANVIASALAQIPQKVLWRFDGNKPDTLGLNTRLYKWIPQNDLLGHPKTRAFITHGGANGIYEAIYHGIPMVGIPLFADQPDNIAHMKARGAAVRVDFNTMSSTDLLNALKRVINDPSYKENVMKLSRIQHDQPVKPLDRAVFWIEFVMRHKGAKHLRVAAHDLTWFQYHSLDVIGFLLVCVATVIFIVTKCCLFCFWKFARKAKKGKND

[3] = tested on: human liver microsomes; assay: Glucuronidation by human liver microsomes (activity screen); conditions: human liver microsomes (HLM); 750 μM substrate, UDP-GlcUA 4 mM, 90 min
[4] = biological target: T2, recombinant human UGT1A9 (Homo sapiens, UniProt O60656); assay: Glucuronidation by recombinant UGT1A9 (activity screen and steady-state kinetics); conditions: 750 μM substrate, UDP-GlcUA 4 mM, 90 min
T2 sequence (O60656 26-530): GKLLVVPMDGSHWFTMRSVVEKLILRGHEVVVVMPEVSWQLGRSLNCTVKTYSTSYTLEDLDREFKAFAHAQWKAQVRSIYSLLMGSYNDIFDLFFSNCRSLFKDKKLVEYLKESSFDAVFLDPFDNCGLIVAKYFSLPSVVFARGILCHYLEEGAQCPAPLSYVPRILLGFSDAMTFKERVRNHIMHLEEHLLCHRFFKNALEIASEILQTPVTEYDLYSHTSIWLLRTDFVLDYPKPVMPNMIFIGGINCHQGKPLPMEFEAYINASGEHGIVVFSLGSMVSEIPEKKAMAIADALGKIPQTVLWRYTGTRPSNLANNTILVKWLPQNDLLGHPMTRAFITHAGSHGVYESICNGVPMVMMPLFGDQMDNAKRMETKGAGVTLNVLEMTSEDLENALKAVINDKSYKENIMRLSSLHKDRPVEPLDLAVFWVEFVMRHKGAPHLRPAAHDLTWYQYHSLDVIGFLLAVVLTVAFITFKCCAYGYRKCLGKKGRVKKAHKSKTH

[5] = biological target: T3, recombinant human UGT2B17 (Homo sapiens, UniProt O75795); assay: Glucuronidation by recombinant UGT2B17 (activity screen); conditions: 750 μM substrate, UDP-GlcUA 4 mM, 90 min
T3 sequence (O75795 24-530): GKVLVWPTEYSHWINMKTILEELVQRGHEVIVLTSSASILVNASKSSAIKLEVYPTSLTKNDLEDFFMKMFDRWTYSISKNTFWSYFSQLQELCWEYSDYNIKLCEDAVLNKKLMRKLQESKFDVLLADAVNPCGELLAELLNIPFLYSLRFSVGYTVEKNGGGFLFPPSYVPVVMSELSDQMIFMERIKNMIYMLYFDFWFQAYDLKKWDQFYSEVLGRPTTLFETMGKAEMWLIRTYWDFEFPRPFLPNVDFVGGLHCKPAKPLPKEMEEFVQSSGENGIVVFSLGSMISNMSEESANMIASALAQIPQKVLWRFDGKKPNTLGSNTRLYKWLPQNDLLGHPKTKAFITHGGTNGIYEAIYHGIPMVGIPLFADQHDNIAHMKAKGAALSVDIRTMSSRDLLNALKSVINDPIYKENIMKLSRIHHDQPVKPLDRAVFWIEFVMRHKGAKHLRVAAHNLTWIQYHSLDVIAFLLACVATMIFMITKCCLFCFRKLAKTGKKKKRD

[6] = tested on: human UGTs; assay: LC-MS/MS confirmation of glucuronidated products; format: in vitro ADME; conditions: recombinant protein, 750 μM substrate, UDP-glucuronic acid 4 mM, 180 min, negative ion mode
Method: FIG. 3 depicts a series of graphs illustrating RP-HPLC chromatographs of glucuronidated-product ion experiments. Tracings represent organic-soluble metabolites generated during incubation of recombinant protein with UDP-glucuronic acid (4 mM) and 750 μM of each substrate (A) Δ^9-THC, (B) CBN, (C) 11-OH-THC, (D) CBD, and (E) COOH-THC. Each substrate was incubated individually for 180 min. Control reactions omitted the respective substrate. MS/MS data were obtained in negative ion mode, as described in the Examples.
Liquid chromatography-tandem mass spectrometry (LC-MS/MS) analyses for product confirmation were performed using an Agilent 1100 HPLC system (Santa Clara. Calif.) which was interfaced with an API 4000 triple quadrupole (MS/MS) mass spectrometer (Applied Biosystems. Foster City. Calif.). Instrument operation and data acquisition was controlled through the Analyst software package (Version 1.4.2, Applied Biosystems). The HPLC system consisted of an autosampler, a binary pump, and a column oven. […]
Trace amounts of glucuronidated product was detected for all the substrates, but in some cases, where kinetic information could not be obtained, the physiological significance remains to be determined. […] In particular, the presence of bis- and/or diglucuronidated products was not detected.

Row | Compound | glucuronidation activity (initial screen), overall [1] | glucuronidation activity (initial screen) [2] | glucuronidation activity (initial screen) [3] | glucuronidation activity (initial screen) [4] | glucuronidation activity (initial screen) [5] | glucuronidated product detected by LC-MS/MS [6]
1 | C=C(C)[C@@H]1CCC(C)=C[C@H]1c1c(O)cc(CCCCC)cc1O [CBD, cannabidiol] | limited | minimal amount of a glucuronidated CBD product | minimal amount of a glucuronidated CBD product | minimal amount of a glucuronidated CBD product | minimal amount of a glucuronidated CBD product | confirming the glucuronide production
2 | Δ^9-Tetrahydrocannabinol [(−)-Δ^9-THC] | – | – | – | – | – | confirming the glucuronide production
